# Patent US4695577A, “Anti-hypertensive agents” (University of Miami, priority 1979, dated 1987)
# How the values were obtained:
# human urinary ACE = molecular target: T1, human urinary ACE (Homo sapiens, UniProt P12821); test: ACE Activity Assay (hydrolysis of Benzoyl-GlyHisLeu); type: biochemical; settings: purified human urinary ACE, in vitro, pH 8.0, 37° C; read-out: I50
# T1 construct: The enzyme preparation was ACE purified from human urine; from tissue; host or cells: human urine
# Method: These factors include the source of enzyme, its purity, the substrate used and its concentration, and the composition of the assay buffer. All I50 data reported herein have been performed with the same assay system and same enzyme (human urinary ACE) and with an approximately 1/2Km level of substrate and are therefore internally consistent.
# To initiate the assay, 40 μl of enzyme and 10 μl of water or inhibitor dissolved in water were preincubated for five minutes at 37° C. […] To terminate the reaction, 1 ml of 0.1 M HCl was added, following which 1 ml of ethyl acetate was added. The mixture was agitated on a rotary mixer and centrifuged briefly to separate the phases.
# An aliquot, 500 μl, of the ethyl acetate layer was transferred to a liquid scintillation vial containing 10 ml of Riafluor, trademark New England Nuclear Corporation, Boston, Mass. For determination of I50 values, enzyme activity in the presence of inhibitor at a series of different concentrations was compared to activity in the absence of inhibitor.
# [1] = tested on: Blood pressure response to angiotensin I; test: Intravenous effectiveness: blood pressure response to angiotensin I in anesthetized rats; type: in vivo, rat; settings: intravenous 2 μmol/kg
# Method: Rats (190-290 g body weight) were fasted overnight and then anesthetized with intraperitoneal pentobarbital, 50-60 mg/kg. Tracheostomy was performed and the animals were ventilated mechanically. A cannula was inserted into a femoral vein for injection of angiotensin I, and a second cannula was inserted into a common carotid artery for direct measurement of arterial blood pressure. Heparin, 1,000 units, was injected via the femoral vein to prevent coagulation. Blood pressure was measured with a pressure transducer connected to a polygraph. The rats were injected with 400 ng/kg of angiotensin I in 20 μl of 0.9 g % NaCl; an amount of angiotensin I sufficient to raise mean arterial blood pressure by 35 mm Hg. After the responsiveness of a given rat to angiotensin I was established, the named compound at 23 μmole/kg (drug dissolved in 0.15 ml of H2 O plus 10 μl of 1 N NaHCO3 ), was given via a stomach tube. At timed intervals, the effects of 400 ng/kg of angiotensin I on mean arterial blood pressure were tested. Results are shown below:
# Anesthetized rats were prepared as described in Example 35. After the responsiveness of a given rat to angiotensin I was established, the named compound, at 2 μmol/kg, in a volume of 15 μl of 0.01 N sodium bicarbonate, was injected via a femoral vein. At timed intervals, the effects of angiotensin I, 400 ng/kg, on mean arterial blood pressure were tested.
# T1 sequence (P12821 30-1232 limits assumed): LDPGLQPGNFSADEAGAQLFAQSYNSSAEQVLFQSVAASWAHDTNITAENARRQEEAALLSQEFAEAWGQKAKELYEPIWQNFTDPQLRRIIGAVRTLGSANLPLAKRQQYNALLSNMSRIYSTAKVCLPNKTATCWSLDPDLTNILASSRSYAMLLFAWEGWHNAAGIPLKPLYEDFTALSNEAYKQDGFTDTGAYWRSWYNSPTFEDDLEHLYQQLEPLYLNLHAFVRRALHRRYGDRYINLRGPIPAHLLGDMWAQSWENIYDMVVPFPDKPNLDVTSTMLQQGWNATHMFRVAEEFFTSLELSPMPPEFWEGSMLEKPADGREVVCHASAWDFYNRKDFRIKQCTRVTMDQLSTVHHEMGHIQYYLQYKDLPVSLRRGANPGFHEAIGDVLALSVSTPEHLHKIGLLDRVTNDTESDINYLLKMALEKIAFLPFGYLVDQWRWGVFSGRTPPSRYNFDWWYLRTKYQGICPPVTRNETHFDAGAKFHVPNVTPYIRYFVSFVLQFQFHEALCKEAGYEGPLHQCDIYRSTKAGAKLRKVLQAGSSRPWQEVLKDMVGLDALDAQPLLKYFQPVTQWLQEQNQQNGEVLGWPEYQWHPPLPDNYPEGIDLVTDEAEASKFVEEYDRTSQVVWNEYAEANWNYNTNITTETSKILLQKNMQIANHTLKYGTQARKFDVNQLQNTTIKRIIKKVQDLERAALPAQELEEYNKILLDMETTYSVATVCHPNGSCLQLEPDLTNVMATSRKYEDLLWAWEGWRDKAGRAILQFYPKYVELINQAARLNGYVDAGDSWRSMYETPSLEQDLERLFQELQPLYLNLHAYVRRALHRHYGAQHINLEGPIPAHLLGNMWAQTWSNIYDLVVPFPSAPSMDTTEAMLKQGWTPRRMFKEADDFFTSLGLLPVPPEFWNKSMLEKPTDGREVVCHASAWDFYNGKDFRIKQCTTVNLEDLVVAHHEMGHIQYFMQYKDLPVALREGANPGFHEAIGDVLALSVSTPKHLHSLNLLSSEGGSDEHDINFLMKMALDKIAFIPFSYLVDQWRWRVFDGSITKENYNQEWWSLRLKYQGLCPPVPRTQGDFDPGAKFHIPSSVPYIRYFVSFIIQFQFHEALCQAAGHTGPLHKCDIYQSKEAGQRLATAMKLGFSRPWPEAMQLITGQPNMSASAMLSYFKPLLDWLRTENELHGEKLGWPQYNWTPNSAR
IC50 (human urinary ACE) [µM],Structure (SMILES),Blood pressure response to 400 ng/kg angiotensin I ([1]; 3 min),Blood pressure response to 400 ng/kg angiotensin I ([1]; 9 min),Blood pressure response to 400 ng/kg angiotensin I ([1]; 13 min)
0.034,"C[C@H](CSC(=O)[C@H](Cc1ccccc1)NC(=O)OC(C)(C)C)C(=O)N1CCC[C@H]1C(=O)O [Example 13, N^α -[3-(N^α -Tertiary-Butyloxycarbonyl-L-Phenylalanylthio)-2-D-Methylpropanoyl]-L-Proline]",19 % of control,19 % of control,22 % of control
0.0075,"C[C@H](CSC(=O)[C@H](Cc1ccccc1)NC(=O)C1CCCC1)C(=O)N1CCC[C@H]1C(=O)O [Example 24, N^α -[3-(N^α -cyclopentylcarbonyl-L-phenylalanylthio)-2-D-methylpropanoyl]-L-proline]",–,–,–
